Patent US6495525B1, “VLA-4 inhibitor: oMePUPA-V” (Biogen, Inc., priority 1998, dated 2002)

How the values were obtained:
VLA-4 = VLA-4 (Homo sapiens, UniProt P05556+P13612); experiment: CS1 Cell Adhesion Assay, Jurkat cells to CS1/BSA conjugate; type: cell-based; parameters: endogenous in cells; host or cells: Jurkat (human T cell line); conditions: in the presence of Mn+2
Description: The peptide NH2-cysteine-tyrosine-CS-1 was synthesized and coupled to BSA-SMCC (SMCC is a heterobifunctional crosslinker which reacts with free amino groups on BSA and the sole cysteine of the synthetic peptide) at a CS1/BSA ratio of 10:1. Wells were coated overnight with 100 μL of conjugate diluted to a final concentration of 1 ug/ml. The next day the wells were blocked with BSA in PBS for one hour and then washed three times.
The human T cell line, Jurkat, was labeled with 2 μM BCECF-AM, a fluorescent dye (2′, 7′, bis-(2-carboxyethyl)-5 and -6) carboxy fluorescein acetoxymethyl ester (Molecular Probes Inc., Eugene, Oregon; catalog #B-1150) that is internalized and deesterified thus trapping the dye within live cells. Jurkat cells (1×10^5 cells/well) in buffer containing 1 mM Mn^+2 were added to the coated plates in the presence of three-fold serial dilutions of inhibitor. Each concentration was assayed in duplicate. After 30 minutes at room temperature, the plates were inverted and washed three times or until no cells were adherent to control wells coated with BSA alone. CS1-adherent cells were quantitated in a Cytofluor fluorescent platereader using an excitation wavelength of 485 nm and an emission wavelength of 530 nm.
Cells adhered to CS1/BSA in the absence of compound served as the 0% inhibition control whereas cells adhering to BSA alone served as the 100% inhibition control. IC50's were calculated using Deltagraph software, version 5.

[1] = Bulk / drug substance stability (HPLC); type: physicochemical
Description: At four weeks, one or two degradation peaks became detectable at 40° C. and 50° C., but the level of each impurity peak was still less than 0.02%.

Sequence of VLA-4 (P13612 34-1032): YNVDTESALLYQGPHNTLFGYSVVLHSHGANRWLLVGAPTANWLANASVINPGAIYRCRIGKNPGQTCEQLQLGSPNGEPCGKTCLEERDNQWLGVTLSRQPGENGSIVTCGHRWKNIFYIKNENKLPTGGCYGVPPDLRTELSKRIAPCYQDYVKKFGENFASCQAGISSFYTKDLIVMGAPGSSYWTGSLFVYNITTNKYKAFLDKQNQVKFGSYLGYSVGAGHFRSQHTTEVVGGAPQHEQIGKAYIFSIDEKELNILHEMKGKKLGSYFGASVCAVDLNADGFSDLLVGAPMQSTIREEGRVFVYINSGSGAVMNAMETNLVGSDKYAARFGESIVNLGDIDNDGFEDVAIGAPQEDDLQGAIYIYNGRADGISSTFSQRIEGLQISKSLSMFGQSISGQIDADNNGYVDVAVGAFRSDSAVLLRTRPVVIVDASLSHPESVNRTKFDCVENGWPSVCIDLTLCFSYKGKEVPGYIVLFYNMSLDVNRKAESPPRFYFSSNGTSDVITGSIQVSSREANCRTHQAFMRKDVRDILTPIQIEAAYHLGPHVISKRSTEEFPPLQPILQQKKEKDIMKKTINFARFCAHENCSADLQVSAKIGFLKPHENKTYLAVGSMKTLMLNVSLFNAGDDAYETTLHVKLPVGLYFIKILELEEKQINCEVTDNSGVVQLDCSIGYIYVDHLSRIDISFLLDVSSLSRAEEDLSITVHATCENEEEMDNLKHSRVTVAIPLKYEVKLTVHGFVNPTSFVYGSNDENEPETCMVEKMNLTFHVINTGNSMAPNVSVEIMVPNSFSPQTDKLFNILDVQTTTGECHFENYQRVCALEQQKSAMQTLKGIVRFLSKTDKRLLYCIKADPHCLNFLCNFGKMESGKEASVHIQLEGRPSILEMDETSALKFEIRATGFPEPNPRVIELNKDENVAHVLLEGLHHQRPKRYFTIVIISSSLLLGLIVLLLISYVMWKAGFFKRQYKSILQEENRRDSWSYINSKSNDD
Sequence of VLA-4 (P05556 21-798): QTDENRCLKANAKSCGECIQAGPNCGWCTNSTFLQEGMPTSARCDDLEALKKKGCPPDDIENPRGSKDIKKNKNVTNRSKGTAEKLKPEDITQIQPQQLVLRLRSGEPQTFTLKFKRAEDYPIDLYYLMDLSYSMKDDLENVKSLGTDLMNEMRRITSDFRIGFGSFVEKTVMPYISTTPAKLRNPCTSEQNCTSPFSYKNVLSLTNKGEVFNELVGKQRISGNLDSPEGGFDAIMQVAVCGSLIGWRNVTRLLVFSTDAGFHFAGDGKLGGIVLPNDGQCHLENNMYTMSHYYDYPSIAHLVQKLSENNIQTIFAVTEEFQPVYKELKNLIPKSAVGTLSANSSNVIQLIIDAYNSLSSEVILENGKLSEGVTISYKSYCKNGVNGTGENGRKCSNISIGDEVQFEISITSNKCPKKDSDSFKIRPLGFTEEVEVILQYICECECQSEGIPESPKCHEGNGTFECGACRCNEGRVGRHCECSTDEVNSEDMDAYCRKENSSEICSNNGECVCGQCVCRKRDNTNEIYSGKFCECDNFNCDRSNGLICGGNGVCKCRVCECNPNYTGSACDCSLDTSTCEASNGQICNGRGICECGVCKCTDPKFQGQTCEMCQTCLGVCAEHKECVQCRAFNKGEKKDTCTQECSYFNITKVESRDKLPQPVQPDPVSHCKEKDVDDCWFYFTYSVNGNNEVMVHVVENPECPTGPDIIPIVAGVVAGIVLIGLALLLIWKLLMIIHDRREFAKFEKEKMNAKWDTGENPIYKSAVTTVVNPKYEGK

level of each impurity (degradation) peak ([1]; four weeks, 40° C. and 50° C.) | degradation on storage (in words) ([1]; two weeks, 40° C. closed vial, 50° C. closed vial, 25° C., RH 60%, 40° C., RH 75%) | SMILES | blocking of Jurkat cell adhesion to CS1 (in words) (VLA-4)
 |  | O=C(O)CN(CCN(CC(=O)O)CC(=O)O)CC(=O)O [EDTA, reference compound] | blocked completely
less than 0.02% | No degradation | Cc1ccccc1NC(=O)Nc1ccc(CC(=O)N2CCC[C@@H]2C(=O)NC(C)CC(=O)O)cc1 (stereo partly drawn) [oMePUPA-V] | 
